Values of other authors as cited in patent publication US11890293B2, “Synthetic composition for treating metabolic disorders” (GLYCOM A/S, priority 2014, dated 2024).

Legend:
[1] = tested on: type 2 diabetes-model mice; details: oral doses
[2] = tested on: high-fat diet rats
[3] = tested on: high-fat diet mice

| Compound | insulin secretion [1] | fat accumulation in the liver and other organs [2] | fat accumulation in the liver and other organs [3] |
| --- | --- | --- | --- |
| CC(=O)N[C@H]1[C@H](O[C@H]2[C@@H](O)[C@@H](CO)O[C@@H](O[C@H]3[C@H](O)[C@@H](O)C(O)O[C@@H]3CO)[C@@H]2O)O[C@H](CO)[C@@H](O[C@@H]2O[C@H](CO)[C@H](O)[C@H](O)[C@H]2O)[C@@H]1O (mixture of isomers) [LNnT, lacto-N-neotetraose] | promote insulin secretion |  |  |
| CC(=O)N[C@H]1[C@H]([C@H](O)[C@H](O)CO)O[C@@](OC[C@H]2O[C@@H](O[C@H]3[C@H](O)[C@@H](O)[C@H](O)O[C@@H]3CO)[C@H](O)[C@@H](O)[C@H]2O)(C(=O)O)C[C@@H]1O [6′-SL, 6′-sialyllactose] | promote insulin secretion | reduce/prevent fat accumulation in the liver and other organs | reduce/prevent fat accumulation in the liver and other organs |
| CC(=O)N[C@H]1[C@H]([C@H](O)[C@H](O)CO)O[C@@](O[C@H]2[C@@H](O)[C@@H](CO)O[C@@H](O[C@H]3[C@H](O)[C@@H](O)C(O)O[C@@H]3CO)[C@@H]2O)(C(=O)O)C[C@@H]1O (stereo partly shown) [3′-SL, 3′-sialyllactose] | promote insulin secretion | reduce/prevent fat accumulation in the liver and other organs | reduce/prevent fat accumulation in the liver and other organs |
